Experimental data published in patent US5726167A, “Inhibition of phosphatidylinositol 3-kinase with viridin, demethoxyviridin, viridiol, demethoxyviridiol, virone, wortmannolone, and analogs thereof” (Eli Lilly and Company, priority 1997, dated 1998).

Target: bovine brain purified PI 3-kinase
Assay: Assay of purified PI 3-kinase activity
Format: biochemical
Details: purified bovine brain PI 3-kinase, phosphatidylinositol substrate, 20 μM ATP
Method: In another, preferred, method, PI 3-kinase was prepared from bovine brain. Two bovine brains (wet weight about 900 g) were obtained from a local slaughterhouse within minutes of slaughter, packed on ice, and homogenized within one hour. Brains were trimmed of excess fat and blood vessels and then homogenized using a Tekmar Tissuemizer (Cincinnati, Ohio) at 4° C. in 20 mM of Tris(pH 8.3) containing 250 mM of sucrose, 6 mM of β-mercaptoethanol, 1 μg/ml of leupeptin, 1 μg/ml of pepstatin A, 0.4 mM of PMSF, and 1 mM of MgCl2.
Following centrifugation for 60 minutes at 10,000×g, the pH of the supernatant (about 1200 mL) was lowered to 5.75 using dropwise addition of 1M acetic acid at 4° C. After stirring for an additional 15 minutes at 4° C., the solution was centrifuged for 60 minutes at 13,500×g. The supernatant was discarded. Pellets were resuspended in Buffer A (20 mM of Tris, pH 8.3, containing 6 mM of β-mercaptoethanol, 0.1 mM of ethylene glycol-bis(β-aminoethyl ether) N,N,N',N'-tetraacetic acid (EGTA), 1 μg/mL of leupeptin, 1 μg/mL of pepstatin A, and 1 mM of MgCl2), and loaded onto a Fast Flow Q Sepharose column (300 ml) at a flow rate of 5 mL/minute at 4° C. […]
PI 3-kinase activity was measured as previously described by Matter, W. F., et al., Biochemical and Biophysical Research Communications, 186: 624-631 (1992). […]

Compound: COC1C(=O)c2coc3c2[C@@](C)(c2ccc4c(c2C3=O)CCC4=O)[C@@H]1O (some centres unmarked) [viridin]
- one-half maximal inhibition, IC50: 0.85 ng/mL
- IC50 (molar value in brackets, read-out: one-half maximal inhibition, IC50): 2.4 nM
